This passage reports IC50 results from US20130217664A1, “NOVEL COMPOUNDS USEFUL FOR THE TREATMENT OF DEGENERATIVE AND INFLAMMATORY DISEASES” (priority 2012, published 2013).

Like-named read-outs stand apart in the source and are kept apart here.

Assay [1] concerns the target T1, human JAK1 (Homo sapiens, UniProt P23458).
T1 construct: catalytic domain, amino acids 866-1154; catalog number PV4774; purchased Invitrogen PV4774
The assay can be described thus: JAK1 inhibition assay (polyGT substrate / Ulight-JAK1 peptide). In kind it is biochemical. The conditions noted are these: recombinant human JAK1 catalytic domain; polyGT or Ulight-JAK1 peptide assay. The procedure, abridged: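 Signal scaled between vehicle and 10 μM staurosporine. Radiometric polyGT reactions ran 45 min at 30 °C, counted after phosphoric-acid stop. Ulight peptide reactions ran 60 min at room temperature, fluorescence read after adding Eu-PT66 detection mix with EDTA.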

In assay [2] the target is T2, human JAK3 (Homo sapiens, UniProt P52333).
T2 construct: catalytic domain (amino acids 781-1124; catalog number PV3855); purchased Invitrogen PV3855
The assay can be described thus: JAK3 inhibition assay. It is filed as biochemical. The conditions noted are these: recombinant human JAK3 catalytic domain; polyGT substrate. The procedure, abridged:
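Radiometric kinase assay: 0.5 ng JAK3 with 2.5 μg polyGT in Tris pH 7.5/MgCl2 buffer, 1 μM ATP plus 0.25 μCi 33P-γ-ATP, 1% DMSO, 45 min at 30 °C, stopped with phosphoric acid.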

The target in assay [3] is T3, human TYK2 (Homo sapiens, UniProt P29597).
T3 construct: catalytic domain (amino acids 871-1187; catalog number 08-147); purchased Carna Biosciences 08-147
T3 sequence (P29597 871-1187): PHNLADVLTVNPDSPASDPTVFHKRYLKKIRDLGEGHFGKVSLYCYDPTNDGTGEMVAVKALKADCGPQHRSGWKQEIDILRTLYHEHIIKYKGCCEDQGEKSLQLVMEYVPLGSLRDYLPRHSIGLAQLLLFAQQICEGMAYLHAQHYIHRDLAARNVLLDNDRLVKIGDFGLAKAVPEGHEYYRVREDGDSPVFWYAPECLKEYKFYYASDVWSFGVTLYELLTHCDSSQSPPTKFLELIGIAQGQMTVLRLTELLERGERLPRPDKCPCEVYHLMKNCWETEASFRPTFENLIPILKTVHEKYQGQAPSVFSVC
Description: TYK2 inhibition assay. In kind it is biochemical. As to conditions: recombinant human TYK2 catalytic domain, polyGT substrate. The procedure, abridged: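 Radiometric kinase reaction run 90 min at 30 °C, stopped with phosphoric acid, washed and scintillation-counted.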

In assay [4] the test system is pSTAT1(2)-luciferase reporter in HeLa cells triggered with human OSM. Description: JAK-STAT signalling assay. It is filed as cell-based. As to conditions: HeLa cells, pSTAT1(2)-luciferase reporter, human OSM 33 ng/mL, read-out: JAK-STAT IC50. The procedure, abridged:
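Compound added 60 min before 33 ng/mL (final) human OSM; after overnight stimulation at 37 °C, luciferase signal from a transiently transfected pSTAT1(2) reporter in HeLa cells was read, with LacZ as internal control. EC50 derived from percent-inhibition dose-response curves.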

Assay [5] deals with CTLL-2 cell line. The assay can be described thus: CTLL2 viability assay. It is filed as cell-based. As to conditions: Mus musculus, IL-2 dependent CTLL2 viability, 24 h, ATP-lite. The text has this:
The protocol describes the methods to analyse the activity of compounds on their ability to sustain the IL2-dependent viability of CTLL2.
Final DMSO concentration was 0.1%.

Assay [6] concerns BA/F3 cell line. The assay can be described thus: BA/F3 viability assay. The conditions noted are these: Mus musculus, BaF3, 48 h, read-out: BA/F3 IC50.
In assay [7] the target is T4, human JAK2 (Homo sapiens, UniProt O60674).
T4 construct: catalytic domain (amino acids 808-1132; catalog number PV4210); GST; purchased Invitrogen PV4210
The assay can be described thus: JAK2 inhibition assay (polyGT substrate / Ulight-JAK1 peptide). In kind it is biochemical. The conditions noted are these: recombinant human JAK2 catalytic domain; polyGT or Ulight-JAK1 peptide assay. The procedure, abridged: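 Two JAK2 formats: a ^33P-ATP polyGT assay (1 μM cold ATP, 90 min, 30° C., cpm read-out) and a Ulight-JAK1 peptide assay read by Europium-anti-phosphotyrosine fluorescence after 60 min at room temperature.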

T4 sequence (O60674 808-1132): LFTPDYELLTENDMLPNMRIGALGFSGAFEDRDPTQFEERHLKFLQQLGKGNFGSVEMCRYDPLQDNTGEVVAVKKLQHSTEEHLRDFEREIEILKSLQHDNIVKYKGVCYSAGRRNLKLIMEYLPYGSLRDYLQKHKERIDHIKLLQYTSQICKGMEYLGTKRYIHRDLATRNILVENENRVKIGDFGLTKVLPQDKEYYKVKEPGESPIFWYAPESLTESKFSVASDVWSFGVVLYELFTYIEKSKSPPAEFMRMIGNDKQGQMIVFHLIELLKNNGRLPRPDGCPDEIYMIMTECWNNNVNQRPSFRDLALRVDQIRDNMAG
T2 sequence (P52333 781-1124): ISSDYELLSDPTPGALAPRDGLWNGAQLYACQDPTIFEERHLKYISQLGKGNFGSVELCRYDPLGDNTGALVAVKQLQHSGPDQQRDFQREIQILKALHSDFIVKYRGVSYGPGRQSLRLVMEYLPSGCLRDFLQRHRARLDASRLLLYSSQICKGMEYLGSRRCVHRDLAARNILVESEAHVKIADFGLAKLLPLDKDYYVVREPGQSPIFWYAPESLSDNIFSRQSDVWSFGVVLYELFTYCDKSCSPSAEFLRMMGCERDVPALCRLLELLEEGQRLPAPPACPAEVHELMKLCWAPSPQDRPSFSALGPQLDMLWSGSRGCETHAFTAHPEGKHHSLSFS
T1 sequence (P23458 866-1154): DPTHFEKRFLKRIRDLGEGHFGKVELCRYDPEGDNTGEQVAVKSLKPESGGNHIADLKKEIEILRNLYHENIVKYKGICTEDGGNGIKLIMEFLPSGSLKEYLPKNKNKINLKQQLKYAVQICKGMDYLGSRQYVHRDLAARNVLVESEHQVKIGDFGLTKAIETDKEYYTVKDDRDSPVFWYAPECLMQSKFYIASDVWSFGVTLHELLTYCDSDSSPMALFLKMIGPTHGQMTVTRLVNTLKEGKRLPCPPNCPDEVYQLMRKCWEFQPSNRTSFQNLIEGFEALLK

As for `CCc1cc(-c2cncs2)ccc1N(C)c1cc2c(cn1)ncn2C` [Compound 151, N-(2-Ethyl-4-(thiazol-5-yl)phenyl)-N,1-dimethyl-1H-imidazo[4,5-c]pyridin-6-amine], the IC50 in assay [1] is 0.01 to 100 nM; in assay [2] it was 0.01 to 100 nM; in assay [3] it was 0.01 to 100 nM; in assay [4] (Homo sapiens, HeLa) it was 1 to 500 nM; in assay [5], > 1000 nM; in assay [6], 1000 to 5000 nM.

With `CCc1cc(CNC2COC2)ccc1N(C)c1cc2c(cn1)ncn2C` [Compound 167, N-(2-ethyl-4-((oxetan-3-ylamino)methyl)phenyl)-N,1-dimethyl-1H-imidazo[4,5-c]pyridin-6-amine], the IC50 in assay [1] was 0.01 to 100 nM; in assay [2], > 1000 nM; in assay [3], 501 to 1000 nM; in assay [4] it was > 1000 nM; in assay [5], > 1000 nM; in assay [6], > 5000 nM.

Turning to `CCc1cc(CNC(C)=O)ccc1N(C)c1cc2c(cn1)ncn2C` [Compound 182, N-(3-Ethyl-4-(methyl(1-methyl-1H-imidazo[4,5-c]pyridin-6-yl)amino)benzyl)acetamide], the IC50 was 0.01 to 100 nM in assay [1]; 501 to 1000 nM in assay [2]; 101 to 500 nM in assay [3]; > 1000 nM in assay [4] (Homo sapiens, HeLa); > 1000 nM in assay [5]; > 5000 nM in assay [6].

For `CCc1cc(C2CCN(S(C)(=O)=O)CC2)ccc1N(C)c1cc2c(cn1)ncn2C` [Compound 214, N-(2-ethyl-4-(1-(methylsulfonyl)piperidin-4-yl)phenyl)-N,1-dimethyl-1H-imidazo[4,5-c]pyridin-6-amine], the IC50 was 0.01 to 100 nM in assay [1]; 0.01 to 100 nM in assay [3]; 1 to 500 nM in assay [4] (Homo sapiens, HeLa); 501 to 1000 nM in assay [5]; 1 to 1000 nM in assay [6].

As to `CCc1cc(N2CC(C(=O)NC)C2)ncc1N(C)c1cc2c(cn1)ncn2C` [Compound 400, 1-{4-Ethyl-5-[methyl-(1-methyl-1H-imidazo[4,5-c]pyridin-6-yl)-amino]-pyridin-2-yl}-azetidine-3-carboxylic acid methylamide], the IC50 in assay [1] was 101 to 500 nM; in assay [7], 501 to 1000 nM; in assay [2] it was > 1000 nM; in assay [3], 501 to 1000 nM; in assay [5] it was > 1000 nM; in assay [6], > 5000 nM.

Regarding `CCc1cc(N2CC(C#N)C2)ncc1N(C)c1cc2c(cn1)ncn2C` [Compound 402, 1-{4-Ethyl-5-[methyl-(1-methyl-1H-imidazo[4,5-c]pyridin-6-yl)-amino]-pyridin-2-yl}-azetidine-3-carbonitrile], the IC50 in assay [1] was 0.01 to 100 nM; in assay [7], 0.01 to 100 nM; in assay [2] it was 101 to 500 nM; in assay [3], 0.01 to 100 nM; in assay [5] it was > 1000 nM; in assay [6], 1000 to 5000 nM.

On to `CN(c1cc2c(cn1)ncn2C)c1c(F)cc(CNS(C)(=O)=O)cc1F` [Compound 404, N-{3,5-Difluoro-4[methyl-(1-methyl-1H-imidazo[4,5-c]pyridin-6-yl)-amino]-benzyl}-methanesulfonamide], for which the IC50 is 0.01 to 100 nM in assay [1]; 0.01 to 100 nM in assay [7]; 101 to 500 nM in assay [2]; 101 to 500 nM in assay [3]; > 1000 nM in assay [5]; > 5000 nM in assay [6].

As for `CN(c1cc2c(cn1)ncn2C)c1c(F)cc(CC#N)cc1F` [Compound 405, {3,5-Difluoro-4-[methyl-(1-methyl-1H-imidazo[4,5-c]pyridin-6-yl)-amino]-phenyl}-acetonitrile], the IC50 in assay [1] was 0.01 to 100 nM; in assay [7] it was 0.01 to 100 nM; in assay [2], 501 to 1000 nM; in assay [3], 0.01 to 100 nM; in assay [5] it was > 1000 nM; in assay [6], 1000 to 5000 nM.

`CCc1cc(CC#N)ccc1N(C)c1cc2c(cn1)ncn2C` [Compound 406, {3-Ethyl-4-[methyl-(1-methyl-1H-imidazo[4,5-c]pyridin-6-yl)-amino]-phenyl}-acetonitrile]: the IC50 in assay [1] lay in the range of 0.01 to 100 nM; in assay [7], 0.01 to 100 nM; in assay [2], 0.01 to 100 nM; in assay [3] it was 0.01 to 100 nM; in assay [5], 501 to 1000 nM; in assay [6] it was 1000 to 5000 nM.

In the case of `CCc1cc(CC#N)ncc1N(C)c1cc2c(cn1)ncn2C` [Compound 407, {4-Ethyl-5-[methyl-(1-methyl-1H-imidazo[4,5-c]pyridin-6-yl)-amino]-pyridin-2-yl}-acetonitrile], the IC50 in assay [1] is 0.01 to 100 nM; in assay [7] it was 0.01 to 100 nM; in assay [2], 501 to 1000 nM; in assay [3], 101 to 500 nM; in assay [5], > 1000 nM; in assay [6] it was > 5000 nM.

`CN(c1cc2c(cn1)ncn2C)c1c(F)cc(C2CN(S(C)(=O)=O)C2)cc1F` [Compound 409, [2,6-Difluoro-4-(1-methanesulfonyl-azetidin-3-yl)-phenyl]-methyl-(1-methyl-1H-imidazo[4,5-c]pyridin-6-yl)-amine]: the IC50 is 0.01 to 100 nM in assay [1]; 101 to 500 nM in assay [7]; 501 to 1000 nM in assay [2]; > 1000 nM in assay [3]; > 1000 nM in assay [5]; > 5000 nM in assay [6].

`CCc1cc(C(C#N)N2CCNC(=O)C2)ccc1N(C)c1cc2c(cn1)ncn2C` (centres unmarked) [Compound 410, {3-Ethyl-4-[methyl-(1-methyl-1H-imidazo[4,5-c]pyridin-6-yl)-amino]-phenyl}-(3-oxo-piperazin-1-yl)-acetonitrile]: the IC50 in assay [1] was 0.01 to 100 nM; in assay [7], 0.01 to 100 nM; in assay [2] it was 0.01 to 100 nM; in assay [3], 0.01 to 100 nM; in assay [5], > 1000 nM; in assay [6] it was > 5000 nM.

On to `CCc1cc(N2CCC(F)(F)C2)ncc1N(C)c1cc2c(cn1)ncn2C` [Compound 411, [6-(3,3-Difluoro-pyrrolidin-1-yl)-4-ethyl-pyridin-3-yl]-methyl-(1-methyl-1H-imidazo[4,5-c]pyridin-6-yl)-amine], for which the IC50 in assay [1] was 0.01 to 100 nM; in assay [7] it was 0.01 to 100 nM; in assay [2] it was 0.01 to 100 nM; in assay [3], 0.01 to 100 nM; in assay [5], > 1000 nM; in assay [6] it was 1000 to 5000 nM.

For the compound `CCc1cc(N2CC(F)(F)C2)ncc1N(C)c1cc2c(cn1)ncn2C` [Compound 413, [6-(3,3-Difluoro-azetidin-1-yl)-4-ethyl-pyridin-3-yl]-methyl-(1-methyl-1H-imidazo[4,5-c]pyridin-6-yl)-amine], the IC50 in assay [1] is 0.01 to 100 nM; in assay [7] it was 0.01 to 100 nM; in assay [2] it was 101 to 500 nM; in assay [3] it was 0.01 to 100 nM; in assay [5], > 1000 nM; in assay [6] it was 1000 to 5000 nM.

For `CN(c1cc2c(cn1)ncn2C)c1ccc(CNS(C)(=O)=O)cc1OC(F)F` [Compound 429, N-{3-Difluoromethoxy-4-[methyl-(1-methyl-1H-imidazo[4,5-c]pyridin-6-yl)-amino]-benzyl}-methanesulfonamide], the IC50 was 0.01 to 100 nM in assay [1]; 0.01 to 100 nM in assay [7]; 0.01 to 100 nM in assay [2]; 101 to 500 nM in assay [3]; > 1000 nM in assay [5]; > 5000 nM in assay [6].

Turning to `CN(c1cc2c(cn1)ncn2C)c1ccc(CN(C)S(C)(=O)=O)cc1OC(F)F` [Compound 430, N-{3-Difluoromethoxy-4-[methyl-(1-methyl-1H-imidazo[4,5-c]pyridin-6-yl)-amino]-benzyl}-N-methyl-methanesulfonamide], the IC50 in assay [1] is 0.01 to 100 nM; in assay [7] it was 0.01 to 100 nM; in assay [2], 0.01 to 100 nM; in assay [3] it was 0.01 to 100 nM; in assay [5], > 1000 nM; in assay [6], 1000 to 5000 nM.
